Test results from ChEMBL document CHEMBL4665822, “Structure-Guided Optimization of Dipeptidyl Inhibitors of Norovirus 3CL Protease” (J Med Chem, 2020).

Key:
[1] = Inhibition of Norovirus 3CL protease using Edans-DFHLQ/GPDabcyl preincubated for 30 mins followed by substrate addition and measured after 1 hr by FRET assay
[2] = Cytotoxicity against human HG23 cells assessed as reduction cell viability after 48 hrs by CytoTox 96 nonradioactive assay; assay type: cell-based
Norovirus = assay: Antiviral activity against Norovirus replicon infected in human HG23 cells assessed as reduction in viral RNA level after 48 hrs by qRT-PCR analysis; assay type: functional, cell-based; details: HG23, 48 h

| Structure (SMILES) | IC50 [1] [nM] | EC50 (Norovirus) [nM] | CC50 at 48 h [2] [nM] |
| --- | --- | --- | --- |
| CC(=O)OC([C@H](C[C@@H]1CCNC1=O)NC(=O)[C@H](CC(C)C)NC(=O)OCC(C)(C)c1cccc(Cl)c1)S(=O)(=O)O (some centres not stated) | 130 | 450 | > 100000 |
| CC(C)C[C@H](NC(=O)OC(C)(C)c1cccc(Cl)c1)C(=O)N[C@@H](C[C@@H]1CCNC1=O)C(O)S(=O)(=O)O (some centres not stated) | 3300 | 1800 | > 100000 |
| CC(C)(Cc1cccc(Cl)c1)OC(=O)N[C@@H](CC1CCCCC1)C(=O)N[C@H](C=O)C[C@@H]1CCNC1=O | 7700 | 5400 | 15600 |
| CC(C)C[C@H](NC(=O)OC(C)(C)Cc1cccc(Cl)c1)C(=O)N[C@@H](C[C@@H]1CCNC1=O)C(O)S(=O)(=O)O (some centres not stated) | 1000 | 700 | > 100000 |
| CC(C)C[C@H](NC(=O)OC(C)(C)Cc1cccc(Cl)c1)C(=O)N[C@H](C=O)C[C@@H]1CCNC1=O | 1200 | 900 | > 100000 |
| CC(C)C[C@H](NC(=O)OCC(C)(C)c1ccccc1)C(=O)N[C@H](C=O)C[C@@H]1CCNC1=O | 450 | 650 | > 100000 |
| CC(C)C[C@H](NC(=O)OCCCc1ccccc1)C(=O)N[C@@H](C[C@@H]1CCNC1=O)C(O)S(=O)(=O)O (some centres not stated) | 600 | 850 | > 100000 |
| O=C[C@H](C[C@@H]1CCNC1=O)NC(=O)[C@H](CC1CCCCC1)NC(=O)OC1(c2cccc(Cl)c2)CC1 | 280 | 250 | 36500 |
| CCC(=O)OC([C@H](C[C@@H]1CCNC1=O)NC(=O)[C@H](CC1CCCCC1)NC(=O)OCC(C)(C)c1cccc(Cl)c1)S(=O)(=O)O (some centres not stated) | 70 | 220 | 70500 |
| CC(C)C[C@H](NC(=O)OCC(C)(C)c1ccccc1)C(=O)N[C@@H](C[C@@H]1CCNC1=O)C(O)S(=O)(=O)O (some centres not stated) | 400 | 450 | > 100000 |
| CC(C)C[C@H](NC(=O)OC1(c2cccc(Cl)c2)CC1)C(=O)N[C@H](C=O)C[C@@H]1CCNC1=O | 280 | 650 | > 100000 |
| CC(C)(Cc1cccc(Cl)c1)OC(=O)N[C@@H](CC1CCCCC1)C(=O)N[C@@H](C[C@@H]1CCNC1=O)C(O)S(=O)(=O)O (some centres not stated) | 6800 | 2900 | 20400 |
| CC(C)(OC(=O)N[C@@H](CC1CCCCC1)C(=O)N[C@@H](C[C@@H]1CCNC1=O)C(O)S(=O)(=O)O)c1cccc(Cl)c1 (some centres not stated) | 2700 | 2900 | > 100000 |
| CC(C)(OC(=O)N[C@@H](CC1CCCCC1)C(=O)N[C@H](C=O)C[C@@H]1CCNC1=O)c1cccc(Cl)c1 | 2900 | 3700 | > 100000 |
| CC(C)C[C@H](NC(=O)OCCCc1ccccc1)C(=O)N[C@H](C=O)C[C@@H]1CCNC1=O | 750 | 770 | > 100000 |
| CC(C)C[C@H](NC(=O)OCC(C)(C)c1cccc(Cl)c1)C(=O)N[C@@H](C[C@@H]1CCNC1=O)C(O)S(=O)(=O)O (some centres not stated) | 300 | 190 | > 100000 |
| CC(C)(COC(=O)N[C@@H](CC1CCCCC1)C(=O)N[C@H](C=O)C[C@@H]1CCNC1=O)c1ccccc1 | 450 | 600 | 80100 |
| CC(C)C[C@H](NC(=O)OC(C)(C)c1cccc(Cl)c1)C(=O)N[C@H](C=O)C[C@@H]1CCNC1=O | 3800 | 3500 | > 100000 |
| O=C(N[C@@H](CC1CCCCC1)C(=O)N[C@@H](C[C@@H]1CCNC1=O)C(O)S(=O)(=O)O)OC1(c2cccc(Cl)c2)CC1 (some centres not stated) | 270 | 180 | 42300 |
| CC(C)C[C@H](NC(=O)OC1(c2cccc(Cl)c2)CC1)C(=O)N[C@@H](C[C@@H]1CCNC1=O)C(O)S(=O)(=O)O (some centres not stated) | 250 | 550 | > 100000 |
| CC(C)(COC(=O)N[C@@H](CC1CCCCC1)C(=O)N[C@@H](C[C@@H]1CCNC1=O)C(O)S(=O)(=O)O)c1ccccc1 (some centres not stated) | 320 | 500 | 83900 |

The next compounds have a lower EC50 (Norovirus) than those just listed; values first:

| IC50 [1] [nM] | EC50 (Norovirus) [nM] | Structure (SMILES) | CC50 at 48 h [2] [nM] |
| --- | --- | --- | --- |
| 110 | 60 | CC(C)(COC(=O)N[C@@H](CC1CCCCC1)C(=O)N[C@H](C=O)C[C@@H]1CCNC1=O)Cc1cccc(Cl)c1 | 14100 |
| 190 | 90 | CC(C)C[C@H](NC(=O)OCCCc1cccc(Cl)c1)C(=O)N[C@@H](C[C@@H]1CCNC1=O)C(O)S(=O)(=O)O (some centres not stated) | > 100000 |
| 140 | 60 | O=C[C@H](C[C@@H]1CCNC1=O)NC(=O)[C@H](CC1CCCCC1)NC(=O)OC/C=C/c1cccc(Cl)c1 | 24100 |
|  | 60 | O=C(N[C@@H](CC1CCCCC1)C(=O)N[C@@H](C[C@@H]1CCNC1=O)C(O)S(=O)(=O)O)OCCCc1cccc(Cl)c1 (some centres not stated) |  |
| 140 | 70 | CC(C)(COC(=O)N[C@@H](CC1CCCCC1)C(=O)N[C@@H](C[C@@H]1CCNC1=O)C(O)S(=O)(=O)O)Cc1cccc(Cl)c1 (some centres not stated) | 16200 |
| 90 | 150 | CC(=O)OC([C@H](C[C@@H]1CCNC1=O)NC(=O)[C@H](CC1CCCCC1)NC(=O)OCC(C)(C)c1cccc(Cl)c1)S(=O)(=O)O (some centres not stated) | 67000 |
| 150 | 80 | CC(C)C[C@H](NC(=O)OC/C=C/c1cccc(Cl)c1)C(=O)N[C@H](C=O)C[C@@H]1CCNC1=O | > 100000 |
| 160 | 70 | O=C(N[C@@H](CC1CCCCC1)C(=O)N[C@@H](C[C@@H]1CCNC1=O)C(O)S(=O)(=O)O)OC/C=C/c1cccc(Cl)c1 (some centres not stated) | 28300 |
| 230 | 70 | CC(C)(COC(=O)N[C@@H](CC1CCCCC1)C(=O)N[C@H](C=O)C[C@@H]1CCNC1=O)c1cccc(Cl)c1 | 13300 |
| 270 | 170 | CC(C)C[C@H](NC(=O)OCC(C)(C)c1cccc(Cl)c1)C(=O)N[C@H](C=O)C[C@@H]1CCNC1=O | > 100000 |
| 200 | 80 | CC(C)(COC(=O)N[C@@H](CC1CCCCC1)C(=O)N[C@@H](C[C@@H]1CCNC1=O)C(O)S(=O)(=O)O)c1cccc(Cl)c1 (some centres not stated) | 14300 |
| 110 | 80 | CC(C)C[C@H](NC(=O)OC/C=C/c1cccc(Cl)c1)C(=O)N[C@@H](C[C@@H]1CCNC1=O)C(O)S(=O)(=O)O (some centres not stated) | > 100000 |
| 340 | 100 | CCC(=O)OC([C@H](C[C@@H]1CCNC1=O)NC(=O)[C@H](CC1CCCCC1)NC(=O)OCC(C)(C)Cc1cccc(Cl)c1)S(=O)(=O)O (some centres not stated) | 18400 |
| 260 | 160 | CC(C)C[C@H](NC(=O)OCCCc1cccc(Cl)c1)C(=O)N[C@H](C=O)C[C@@H]1CCNC1=O | > 100000 |
|  | 80 | O=C[C@H](C[C@@H]1CCNC1=O)NC(=O)[C@H](CC1CCCCC1)NC(=O)OCCCc1cccc(Cl)c1 | 30300 |
|  | 80 | CCCCCC(=O)OC([C@H](C[C@@H]1CCNC1=O)NC(=O)[C@H](CC1CCCCC1)NC(=O)OCC(C)(C)Cc1cccc(Cl)c1)S(=O)(=O)O (some centres not stated) | 20700 |
